Values of other authors, collected in patent US20040157330A1, “Compositions and methods for targeted biological delivery of molecular carriers” (Arizeke Pharmaceuticals, Inc., priority 2003, published 2004).

Molecular target: human transferrin receptor (Homo sapiens, UniProt P02786)
Settings: for binding to the human transferrin receptor: without inhibiting transferrin binding

Sequence of human transferrin receptor (P02786 whole entry): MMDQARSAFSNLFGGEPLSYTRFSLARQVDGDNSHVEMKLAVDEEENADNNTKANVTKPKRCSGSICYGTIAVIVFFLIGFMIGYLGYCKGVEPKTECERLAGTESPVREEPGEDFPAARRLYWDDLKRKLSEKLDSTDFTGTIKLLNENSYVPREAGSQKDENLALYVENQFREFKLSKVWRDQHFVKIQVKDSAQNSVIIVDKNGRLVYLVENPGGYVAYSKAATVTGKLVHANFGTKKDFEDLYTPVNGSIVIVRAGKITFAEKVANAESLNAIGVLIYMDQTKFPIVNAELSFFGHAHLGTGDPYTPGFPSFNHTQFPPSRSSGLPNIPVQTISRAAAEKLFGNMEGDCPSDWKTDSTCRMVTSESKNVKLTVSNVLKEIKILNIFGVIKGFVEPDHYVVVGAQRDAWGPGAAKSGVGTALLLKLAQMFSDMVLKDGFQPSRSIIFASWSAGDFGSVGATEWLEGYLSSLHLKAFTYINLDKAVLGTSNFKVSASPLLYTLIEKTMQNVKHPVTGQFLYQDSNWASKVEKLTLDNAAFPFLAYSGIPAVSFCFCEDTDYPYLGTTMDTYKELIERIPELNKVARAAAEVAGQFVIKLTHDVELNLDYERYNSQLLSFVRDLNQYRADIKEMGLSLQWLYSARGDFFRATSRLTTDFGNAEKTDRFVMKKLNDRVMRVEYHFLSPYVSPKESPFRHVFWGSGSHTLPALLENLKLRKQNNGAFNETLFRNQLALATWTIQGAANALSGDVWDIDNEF

| binding to the human transferrin receptor | Kd (calculated, similar to the binding affinity of transferrin) | Substance |
| --- | --- | --- |
| bind specifically | – | HAIYPRH |
| bind specifically | 15 nM | THRPPMWSPVWP |
